System: 485176-168-R4-J1-PDC spheroids with HUVEC/MSC, viability
Test: Anticancer human tumor 485176-168-R4-J1-PDC patient-derived pancreatic adenocarcinoma cell line growth inhibition [GQUAD]
Settings: for IC50: curve of first compound; for viability, T/C: stronger effect = lower value
Summary of the method: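 Tumor cells were grown as complex spheroids with HUVEC endothelial cells and mesenchymal stem cells as stroma. G-quadruplex stabilizers were combined with targeted agents over half-log dilutions from near the clinical Cmax, or from 10 microM.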

[1] = second compound 0.0316 µM, first compound 0.0316 µM
[2] = second compound 0.0316 µM, first compound 0.316 µM
[3] = second compound 0.1 µM, first compound 0.0316 µM
[4] = second compound 0.1 µM, first compound 0.316 µM
[5] = second compound 0.316 µM, first compound 0.0316 µM
[6] = second compound 0.316 µM, first compound 0.316 µM
[7] = second compound 1 µM, first compound 0.0316 µM
[8] = second compound 1 µM, first compound 0.316 µM
[9] = second compound 3.16 µM, first compound 0.0316 µM
[10] = second compound 3.16 µM, first compound 0.316 µM
[11] = second compound 10 µM, first compound 0.0316 µM
[12] = second compound 10 µM, first compound 0.316 µM
[13] = second compound 0.0316 µM, first compound 0.1 µM
[14] = second compound 0.0316 µM, first compound 1 µM
[15] = second compound 0.0316 µM, first compound 3.16 µM
[16] = second compound 0.0316 µM, first compound 10 µM
[17] = second compound 0.1 µM, first compound 0.1 µM
[18] = second compound 0.1 µM, first compound 1 µM
[19] = second compound 0.1 µM, first compound 3.16 µM
[20] = second compound 0.1 µM, first compound 10 µM
[21] = second compound 0.316 µM, first compound 0.1 µM
[22] = second compound 0.316 µM, first compound 1 µM
[23] = second compound 0.316 µM, first compound 3.16 µM
[24] = second compound 0.316 µM, first compound 10 µM
[25] = second compound 1 µM, first compound 0.1 µM
[26] = second compound 1 µM, first compound 1 µM
[27] = second compound 1 µM, first compound 3.16 µM
[28] = second compound 1 µM, first compound 10 µM
[29] = second compound 3.16 µM, first compound 0.1 µM
[30] = second compound 3.16 µM, first compound 1 µM
[31] = second compound 3.16 µM, first compound 3.16 µM
[32] = second compound 3.16 µM, first compound 10 µM
[33] = second compound 10 µM, first compound 0.1 µM
[34] = second compound 10 µM, first compound 1 µM
[35] = second compound 10 µM, first compound 3.16 µM
[36] = second compound 10 µM, first compound 10 µM
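Further: spheroids exposed to compounds for seven days before readout.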
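Wherever viability, T/C is given: percent viability relative to DMSO vehicle control wells as 100%.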

CC[C@@]1(O)C(=O)OCc2c1cc1n(c2=O)Cc2cc3c(CN(C)C)c(O)ccc3nc2-1 + Cc1cnc(CNC(=O)c2c(=O)c3ccc(N4CCCN(C)CC4)nc3n3c2sc2ccccc23)cn1
IC50 (second compound 0.0316 µM): 113 nM | IC50 (second compound 0.1 µM): 59.2 nM | IC50 (second compound 0.316 µM): 43.4 nM | IC50 (second compound 1 µM): 10.9 nM | IC50 (second compound 3.16 µM): 1.18 nM | IC50 (second compound 10 µM): < 0.999 nM | viability, T/C (second compound 0.0316 µM, first compound 0.000999 µM): 94.4% | viability, T/C (second compound 0.0316 µM, first compound 0.00316 µM): 84.9% | viability, T/C (second compound 0.0316 µM, first compound 0.00999 µM): 87.5% | viability, T/C [1]: 70.3% | viability, T/C (second compound 0.0316 µM, first compound 0.0999 µM): 52.8% | viability, T/C [2]: 29.3% | viability, T/C (second compound 0.1 µM, first compound 0.000999 µM): 75.8% | viability, T/C (second compound 0.1 µM, first compound 0.00316 µM): 72.1% | viability, T/C (second compound 0.1 µM, first compound 0.00999 µM): 88.9% | viability, T/C [3]: 60.9% | viability, T/C (second compound 0.1 µM, first compound 0.0999 µM): 44.8% | viability, T/C [4]: 37.1% | viability, T/C (second compound 0.316 µM, first compound 0.000999 µM): 69.3% | viability, T/C (second compound 0.316 µM, first compound 0.00316 µM): 62.8% | viability, T/C (second compound 0.316 µM, first compound 0.00999 µM): 64% | viability, T/C [5]: 52.4% | viability, T/C (second compound 0.316 µM, first compound 0.0999 µM): 41.8% | viability, T/C [6]: 32.2% | viability, T/C (second compound 1 µM, first compound 0.000999 µM): 47.8% | viability, T/C (second compound 1 µM, first compound 0.00316 µM): 55.1% | viability, T/C (second compound 1 µM, first compound 0.00999 µM): 50.9% | viability, T/C [7]: 42.4% | viability, T/C (second compound 1 µM, first compound 0.0999 µM): 35.9% | viability, T/C [8]: 33.5% | viability, T/C (second compound 3.16 µM, first compound 0.000999 µM): 49.5% | viability, T/C (second compound 3.16 µM, first compound 0.00316 µM): 49.4% | viability, T/C (second compound 3.16 µM, first compound 0.00999 µM): 39.8% | viability, T/C [9]: 41.2% | viability, T/C (second compound 3.16 µM, first compound 0.0999 µM): 34.4% | viability, T/C [10]: 30.8% | viability, T/C (second compound 10 µM, first compound 0.000999 µM): 42.7% | viability, T/C (second compound 10 µM, first compound 0.00316 µM): 44.5% | viability, T/C (second compound 10 µM, first compound 0.00999 µM): 41.3% | viability, T/C [11]: 36.4% | viability, T/C (second compound 10 µM, first compound 0.0999 µM): 36.3% | viability, T/C [12]: 27.5%

COc1ncnc(C2CC2)c1-c1ncc2cnn(Cc3ccc(-c4nc(C(F)(F)F)cn4C(C)C)cc3)c2n1 + CN(C)c1ccc(Nc2c3ccc(NC(=O)CCN4CCCC4)cc3nc3cc(NC(=O)CCN4CCCC4)ccc23)cc1
IC50 (second compound 0.0316 µM): > 10000 nM | IC50 (second compound 0.1 µM): > 10000 nM | IC50 (second compound 0.316 µM): > 10000 nM | IC50 (second compound 1 µM): > 10000 nM | IC50 (second compound 3.16 µM): > 10000 nM | IC50 (second compound 10 µM): > 10000 nM | viability, T/C [1]: 86.9% | viability, T/C [13]: 83.5% | viability, T/C [2]: 109% | viability, T/C [14]: 107% | viability, T/C [15]: 97.8% | viability, T/C [16]: 94.3% | viability, T/C [3]: 123% | viability, T/C [17]: 95.2% | viability, T/C [4]: 106% | viability, T/C [18]: 93.3% | viability, T/C [19]: 104% | viability, T/C [20]: 89.5% | viability, T/C [5]: 96.3% | viability, T/C [21]: 95.5% | viability, T/C [6]: 103% | viability, T/C [22]: 96% | viability, T/C [23]: 87.4% | viability, T/C [24]: 98% | viability, T/C [7]: 88.1% | viability, T/C [25]: 97.1% | viability, T/C [8]: 105% | viability, T/C [26]: 74.3% | viability, T/C [27]: 99.9% | viability, T/C [28]: 83.3% | viability, T/C [9]: 94.3% | viability, T/C [29]: 96.8% | viability, T/C [10]: 87.9% | viability, T/C [30]: 102% | viability, T/C [31]: 92.5% | viability, T/C [32]: 88.1% | viability, T/C [11]: 90.5% | viability, T/C [33]: 81.2% | viability, T/C [12]: 86.8% | viability, T/C [34]: 86.8% | viability, T/C [35]: 72.4% | viability, T/C [36]: 70.2%

CC1COCCN1c1cc(C2(O)CC3CCC(C2)O3)c2cnn(-c3ccn[nH]3)c2n1 (stereo not drawn) + Cc1[nH]c2ccc(F)cc2c1-c1nc2c3cccnc3c3ncccc3c2[nH]1
IC50 (second compound 0.0316 µM): 71.9 nM | IC50 (second compound 0.1 µM): 67.9 nM | IC50 (second compound 0.316 µM): 118 nM | IC50 (second compound 1 µM): 67.5 nM | IC50 (second compound 3.16 µM): 46.6 nM | IC50 (second compound 10 µM): 59.9 nM | viability, T/C [1]: 67.4% | viability, T/C [13]: 43% | viability, T/C [2]: 17.3% | viability, T/C [14]: 10.1% | viability, T/C [15]: 11.5% | viability, T/C [16]: 7.63% | viability, T/C [3]: 66.5% | viability, T/C [17]: 41.6% | viability, T/C [4]: 14.1% | viability, T/C [18]: 8.96% | viability, T/C [19]: 12% | viability, T/C [20]: 8.29% | viability, T/C [5]: 56.8% | viability, T/C [21]: 55.5% | viability, T/C [6]: 16.6% | viability, T/C [22]: 8.98% | viability, T/C [23]: 11.9% | viability, T/C [24]: 8.2% | viability, T/C [7]: 61.8% | viability, T/C [25]: 44% | viability, T/C [8]: 19.3% | viability, T/C [26]: 12.1% | viability, T/C [27]: 10.7% | viability, T/C [28]: 8.42% | viability, T/C [9]: 57.6% | viability, T/C [29]: 35% | viability, T/C [10]: 17.2% | viability, T/C [30]: 9.84% | viability, T/C [31]: 11.1% | viability, T/C [32]: 8.07% | viability, T/C [11]: 64.1% | viability, T/C [33]: 38.7% | viability, T/C [12]: 13.5% | viability, T/C [34]: 11.5% | viability, T/C [35]: 10.8% | viability, T/C [36]: 8.33%

Nc1ccn(C2OC(CO)C(O)C2(F)F)c(=O)n1 (stereo not drawn) + Cc1cnc(CNC(=O)c2c(=O)c3ccc(N4CCCN(C)CC4)nc3n3c2sc2ccccc23)cn1
IC50 (second compound 0.0316 µM): 42.2 nM | IC50 (second compound 0.1 µM): 33.1 nM | IC50 (second compound 0.316 µM): 42.6 nM | IC50 (second compound 1 µM): < 31.6 nM | IC50 (second compound 3.16 µM): < 31.6 nM | IC50 (second compound 10 µM): < 31.6 nM | viability, T/C [1]: 60.9% | viability, T/C [13]: 17.7% | viability, T/C [2]: 11% | viability, T/C [14]: 8.82% | viability, T/C [15]: 8.83% | viability, T/C [16]: 9.73% | viability, T/C [3]: 51.1% | viability, T/C [17]: 24.9% | viability, T/C [4]: 7.73% | viability, T/C [18]: 11.8% | viability, T/C [19]: 11.2% | viability, T/C [20]: 12.9% | viability, T/C [5]: 60.3% | viability, T/C [21]: 22% | viability, T/C [6]: 10.2% | viability, T/C [22]: 10.3% | viability, T/C [23]: 11.5% | viability, T/C [24]: 11.2% | viability, T/C [7]: 40.8% | viability, T/C [25]: 19.7% | viability, T/C [8]: 11.4% | viability, T/C [26]: 11.6% | viability, T/C [27]: 12.7% | viability, T/C [28]: 11.7% | viability, T/C [9]: 43.6% | viability, T/C [29]: 20.3% | viability, T/C [10]: 11.1% | viability, T/C [30]: 9.17% | viability, T/C [31]: 12.5% | viability, T/C [32]: 12.6% | viability, T/C [11]: 37% | viability, T/C [33]: 24.6% | viability, T/C [12]: 10.4% | viability, T/C [34]: 10.4% | viability, T/C [35]: 11.1% | viability, T/C [36]: 9.2%

From PubChem BioAssay AID2060509 (Molecular Pharmacology Branch, DTP, NCI, 2025)
